From patent US9944608B2, “Herbicidal pyridazinone derivatives” (Syngenta Participations AG, priority 2014, dated 2018)

Assays:
Test in all cases: B1 Post-emergence efficacy, glasshouse pot test
Assay type in all cases: in vivo
Settings in all cases: post-emergence application, 1000 g/ha, evaluated after 13 days
[1] = system: Amaranthus retoflexus (AMARE)
Procedure: (§1) B1 Post-Emergence Efficacy Seeds of a variety of test species are sown in standard soil in pots:—Solanum nigrum (SOLNI), Amaranthus retoflexus (AMARE), Setaria faberi (SETFA), Alopecurus myosuroides (ALOMY), Echinochloa crus-galli (ECHCG), Ipomoea hederacea (IPOHE), Lolium perenne (LOLPE). After 8 days cultivation (post-emergence) under controlled conditions in a glasshouse (at 24/16° C., day/night; 14 hours light; 65% humidity), the plants are sprayed with an aqueous spray solution derived from the formulation of the technical active ingredient in acetone/water (50:50) solution containing 0.5% Tween 20 (polyoxyethelyene sorbitan monolaurate, CAS RN 9005-64-5). Compounds are applied at 1000 g/ha. The test plants are then grown in a glasshouse under controlled conditions in a glasshouse (at 24/16° C., day/night; 14 hours light; 65% humidity) and watered twice daily. After 13 days, the test is evaluated for the percentage damage caused to the plant. The biological activities are assessed on a five point scale (5=80-100%; 4=60-79%; 3=40-59%; 2=20-39%; 1=0-19%). A blank value in the table is indicative that the compound was not tested on that species.

[2] = system: Ipomoea hederacea (IPOHE)
Procedure: as §1

Lolium perenne (LOLPE) = system: Lolium perenne (LOLPE)
Procedure: as §1

Setaria faberi (SETFA) = system: Setaria faberi (SETFA)
Procedure: as §1

[3] = system: Echinochloa crus-galli (ECHCG)
Procedure: as §1

Solanum nigrum (SOLNI) = system: Solanum nigrum (SOLNI)
Procedure: as §1

[4] = system: Alopecurus myosuroides (ALOMY)
Procedure: as §1

CN(C)c1nn(C)c(=O)c(-c2c(F)ccc(Cl)c2OCc2ccccc2)c1O [Compound 1.085]
AMARE: percentage damage caused to the plant (five point scale) [1]: 5 (5=80-100%)
IPOHE: percentage damage caused to the plant (five point scale) [2]: 5 (5=80-100%)
LOLPE: percentage damage caused to the plant (five point scale) (Lolium perenne (LOLPE)): 5 (5=80-100%)
SETFA: percentage damage caused to the plant (five point scale) (Setaria faberi (SETFA)): 3 (3=40-59%)
ECHCG: percentage damage caused to the plant (five point scale) [3]: 4 (4=60-79%)
SOLNI: percentage damage caused to the plant (five point scale) (Solanum nigrum (SOLNI)): 5 (5=80-100%)

CCc1nn(C)c(=O)c(-c2c(C(F)(F)F)ccc(Cl)c2OCc2ccccc2)c1O [Compound 1.072]
AMARE: percentage damage caused to the plant (five point scale) [1]: 2 (2=20-39%)
IPOHE: percentage damage caused to the plant (five point scale) [2]: 5 (5=80-100%)
LOLPE: percentage damage caused to the plant (five point scale) (Lolium perenne (LOLPE)): 2 (2=20-39%)
SETFA: percentage damage caused to the plant (five point scale) (Setaria faberi (SETFA)): 5 (5=80-100%)
ECHCG: percentage damage caused to the plant (five point scale) [3]: 4 (4=60-79%)
SOLNI: percentage damage caused to the plant (five point scale) (Solanum nigrum (SOLNI)): 5 (5=80-100%)

CN(C)c1nn(C)c(=O)c(-c2c(Cl)ccc(Cl)c2OCc2ccccc2)c1O [Compound 1.087]
AMARE: percentage damage caused to the plant (five point scale) [1]: 5 (5=80-100%)
IPOHE: percentage damage caused to the plant (five point scale) [2]: 5 (5=80-100%)
LOLPE: percentage damage caused to the plant (five point scale) (Lolium perenne (LOLPE)): 5 (5=80-100%)
SETFA: percentage damage caused to the plant (five point scale) (Setaria faberi (SETFA)): 5 (5=80-100%)
ECHCG: percentage damage caused to the plant (five point scale) [3]: 5 (5=80-100%)
SOLNI: percentage damage caused to the plant (five point scale) (Solanum nigrum (SOLNI)): 5 (5=80-100%)

Cn1nc(S(C)(=O)=O)c(O)c(-c2c(F)ccc(Cl)c2OCc2ccccc2)c1=O [Compound 1.079]
AMARE: percentage damage caused to the plant (five point scale) [1]: 1 (1=0-19%)
IPOHE: percentage damage caused to the plant (five point scale) [2]: 5 (5=80-100%)
LOLPE: percentage damage caused to the plant (five point scale) (Lolium perenne (LOLPE)): 1 (1=0-19%)
SETFA: percentage damage caused to the plant (five point scale) (Setaria faberi (SETFA)): 1 (1=0-19%)
ECHCG: percentage damage caused to the plant (five point scale) [3]: 1 (1=0-19%)
SOLNI: percentage damage caused to the plant (five point scale) (Solanum nigrum (SOLNI)): 5 (5=80-100%)

Cc1nn(C)c(=O)c(-c2c(C(F)(F)F)ccc(F)c2OCc2ccccc2)c1O [Compound 1.069]
AMARE: percentage damage caused to the plant (five point scale) [1]: 3 (3=40-59%)
IPOHE: percentage damage caused to the plant (five point scale) [2]: 5 (5=80-100%)
LOLPE: percentage damage caused to the plant (five point scale) (Lolium perenne (LOLPE)): 3 (3=40-59%)
SETFA: percentage damage caused to the plant (five point scale) (Setaria faberi (SETFA)): 5 (5=80-100%)
ECHCG: percentage damage caused to the plant (five point scale) [3]: 5 (5=80-100%)
SOLNI: percentage damage caused to the plant (five point scale) (Solanum nigrum (SOLNI)): 5 (5=80-100%)

Cn1nc(C(F)(F)F)c(O)c(-c2c(Cl)ccc(Cl)c2OCc2ccccc2)c1=O [Compound 1.075]
AMARE: percentage damage caused to the plant (five point scale) [1]: 4 (4=60-79%)
IPOHE: percentage damage caused to the plant (five point scale) [2]: 5 (5=80-100%)
LOLPE: percentage damage caused to the plant (five point scale) (Lolium perenne (LOLPE)): 4 (4=60-79%)
SETFA: percentage damage caused to the plant (five point scale) (Setaria faberi (SETFA)): 5 (5=80-100%)
ECHCG: percentage damage caused to the plant (five point scale) [3]: 5 (5=80-100%)
SOLNI: percentage damage caused to the plant (five point scale) (Solanum nigrum (SOLNI)): 5 (5=80-100%)

CSc1nn(C)c(=O)c(-c2c(F)ccc(Cl)c2OCc2ccccc2)c1O [Compound 1.084]
AMARE: percentage damage caused to the plant (five point scale) [1]: 3 (3=40-59%)
IPOHE: percentage damage caused to the plant (five point scale) [2]: 5 (5=80-100%)
LOLPE: percentage damage caused to the plant (five point scale) (Lolium perenne (LOLPE)): 4 (4=60-79%)
SETFA: percentage damage caused to the plant (five point scale) (Setaria faberi (SETFA)): 2 (2=20-39%)
ECHCG: percentage damage caused to the plant (five point scale) [3]: 1 (1=0-19%)
SOLNI: percentage damage caused to the plant (five point scale) (Solanum nigrum (SOLNI)): 5 (5=80-100%)

Cn1nc(N)c(O)c(-c2c(F)ccc(Cl)c2OCc2ccccc2)c1=O [Compound 1.078]
AMARE: percentage damage caused to the plant (five point scale) [1]: 3 (3=40-59%)
IPOHE: percentage damage caused to the plant (five point scale) [2]: 4 (4=60-79%)
LOLPE: percentage damage caused to the plant (five point scale) (Lolium perenne (LOLPE)): 1 (1=0-19%)
SETFA: percentage damage caused to the plant (five point scale) (Setaria faberi (SETFA)): 3 (3=40-59%)
ECHCG: percentage damage caused to the plant (five point scale) [3]: 2 (2=20-39%)
SOLNI: percentage damage caused to the plant (five point scale) (Solanum nigrum (SOLNI)): 5 (5=80-100%)

Cc1nn(C)c(=O)c(-c2c(F)ccc(Cl)c2OCc2ccccc2)c1O [Compound 1.004]
AMARE: percentage damage caused to the plant (five point scale) [1]: 5 (5=80-100%)
IPOHE: percentage damage caused to the plant (five point scale) [2]: 5 (5=80-100%)
LOLPE: percentage damage caused to the plant (five point scale) (Lolium perenne (LOLPE)): 5 (5=80-100%)
SETFA: percentage damage caused to the plant (five point scale) (Setaria faberi (SETFA)): 5 (5=80-100%)
ECHCG: percentage damage caused to the plant (five point scale) [3]: 5 (5=80-100%)
SOLNI: percentage damage caused to the plant (five point scale) (Solanum nigrum (SOLNI)): 5 (5=80-100%)

COc1ccc(COc2c(Cl)ccc(Cl)c2-c2c(O)c(C)nn(C)c2=O)cc1 [Compound 1.067]
AMARE: percentage damage caused to the plant (five point scale) [1]: 2 (2=20-39%)
IPOHE: percentage damage caused to the plant (five point scale) [2]: 5 (5=80-100%)
LOLPE: percentage damage caused to the plant (five point scale) (Lolium perenne (LOLPE)): 5 (5=80-100%)
SETFA: percentage damage caused to the plant (five point scale) (Setaria faberi (SETFA)): 5 (5=80-100%)
ECHCG: percentage damage caused to the plant (five point scale) [3]: 5 (5=80-100%)
SOLNI: percentage damage caused to the plant (five point scale) (Solanum nigrum (SOLNI)): 5 (5=80-100%)

CC1=NN(C)C(=O)C(c2c(Cl)ccc(Cl)c2OCc2ccccc2)C1=O (stereo not drawn) [Compound 1.001, 4-(2-benzyloxy-3,6-dichloro-phenyl)-2,6-dimethyl-pyridazine-3,5-dione]
ALOMY: percentage damage caused to the plant (five point scale) [4]: 4 (4=60-79%)
AMARE: percentage damage caused to the plant (five point scale) [1]: 5 (5=80-100%)
IPOHE: percentage damage caused to the plant (five point scale) [2]: 5 (5=80-100%)
SETFA: percentage damage caused to the plant (five point scale) (Setaria faberi (SETFA)): 5 (5=80-100%)
ECHCG: percentage damage caused to the plant (five point scale) [3]: 5 (5=80-100%)
SOLNI: percentage damage caused to the plant (five point scale) (Solanum nigrum (SOLNI)): 5 (5=80-100%)

CCc1nn(C)c(=O)c(-c2c(Cl)ccc(Cl)c2OCc2ccccc2)c1O [Compound 1.007]
AMARE: percentage damage caused to the plant (five point scale) [1]: 5 (5=80-100%)
IPOHE: percentage damage caused to the plant (five point scale) [2]: 5 (5=80-100%)
LOLPE: percentage damage caused to the plant (five point scale) (Lolium perenne (LOLPE)): 4 (4=60-79%)
SETFA: percentage damage caused to the plant (five point scale) (Setaria faberi (SETFA)): 5 (5=80-100%)
ECHCG: percentage damage caused to the plant (five point scale) [3]: 5 (5=80-100%)
SOLNI: percentage damage caused to the plant (five point scale) (Solanum nigrum (SOLNI)): 5 (5=80-100%)

Cc1nn(C)c(=O)c(-c2c(Cl)ccc(F)c2OCc2ccccc2)c1O [Compound 1.014]
AMARE: percentage damage caused to the plant (five point scale) [1]: 4 (4=60-79%)
IPOHE: percentage damage caused to the plant (five point scale) [2]: 5 (5=80-100%)
LOLPE: percentage damage caused to the plant (five point scale) (Lolium perenne (LOLPE)): 3 (3=40-59%)
SETFA: percentage damage caused to the plant (five point scale) (Setaria faberi (SETFA)): 5 (5=80-100%)
ECHCG: percentage damage caused to the plant (five point scale) [3]: 4 (4=60-79%)
SOLNI: percentage damage caused to the plant (five point scale) (Solanum nigrum (SOLNI)): 5 (5=80-100%)

Cc1nn(C2CC2)c(=O)c(-c2c(Cl)ccc(Cl)c2OCc2ccccc2)c1O [Compound 1.041]
AMARE: percentage damage caused to the plant (five point scale) [1]: 5 (5=80-100%)
IPOHE: percentage damage caused to the plant (five point scale) [2]: 5 (5=80-100%)
LOLPE: percentage damage caused to the plant (five point scale) (Lolium perenne (LOLPE)): 4 (4=60-79%)
SETFA: percentage damage caused to the plant (five point scale) (Setaria faberi (SETFA)): 5 (5=80-100%)
ECHCG: percentage damage caused to the plant (five point scale) [3]: 5 (5=80-100%)
SOLNI: percentage damage caused to the plant (five point scale) (Solanum nigrum (SOLNI)): 5 (5=80-100%)

CSc1nn(C)c(=O)c(-c2c(Cl)ccc(Cl)c2OCc2ccccc2)c1O [Compound 1.086]
AMARE: percentage damage caused to the plant (five point scale) [1]: 3 (3=40-59%)
IPOHE: percentage damage caused to the plant (five point scale) [2]: 5 (5=80-100%)
LOLPE: percentage damage caused to the plant (five point scale) (Lolium perenne (LOLPE)): 4 (4=60-79%)
SETFA: percentage damage caused to the plant (five point scale) (Setaria faberi (SETFA)): 4 (4=60-79%)
ECHCG: percentage damage caused to the plant (five point scale) [3]: 2 (2=20-39%)
SOLNI: percentage damage caused to the plant (five point scale) (Solanum nigrum (SOLNI)): 5 (5=80-100%)

Cc1nn(C)c(=O)c(-c2c(Cl)cccc2OCc2ccccc2)c1O [Compound 1.068]
AMARE: percentage damage caused to the plant (five point scale) [1]: 3 (3=40-59%)
IPOHE: percentage damage caused to the plant (five point scale) [2]: 4 (4=60-79%)
LOLPE: percentage damage caused to the plant (five point scale) (Lolium perenne (LOLPE)): 2 (2=20-39%)
SETFA: percentage damage caused to the plant (five point scale) (Setaria faberi (SETFA)): 4 (4=60-79%)
ECHCG: percentage damage caused to the plant (five point scale) [3]: 4 (4=60-79%)
SOLNI: percentage damage caused to the plant (five point scale) (Solanum nigrum (SOLNI)): 5 (5=80-100%)
